How the values were obtained:
[1] = molecular target: T1, CDK7/Cyclin H/MNAT1 (Homo sapiens, UniProt P50613); experiment: Enzymatic assay for CDK7 (FRET based LANCE Ultra kinase assay); type: biochemical; conditions: for IC50: read-out: CDK7 enzymatic activity (IC50 range)
T1 construct: purchased Invitrogen PR6749B
Method in brief: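 Inhibition was measured at Km ATP by time-resolved FRET between a Eu anti-phospho antibody and a phosphorylated ULight peptide. The enzyme was the purified CDK7/cyclin complex, and data were curve-fitted.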

[2] = tested on: RPMI-8226; experiment: Cellular RPMI-8226 viability assay (CellTiter-Glo, 72 hours); type: cell-based; conditions: Homo sapiens
Protocol: (§1) All cell lines were routinely tested for mycoplasma.
(§2) The effect of the CDK7 inhibitor to inhibit the growth of target cancer cells was evaluated through the 72 hours time period of viability assay. Briefly, the candidate cell line ware plated in 96 well plate at the following density of cells respectively. […] DMSO solvent without compound served as a control and final DMSO concentration less than 0.1%. After 72 hours of incubation at 37° C., 5% CO2 incubator, cells were analyzed for the viability using the CellTiter-Glo Luminescent Cell Viability Assay (Promega, Cat #G7570). All viability assays were performed in duplicate and Luminescence was read using an Envision (Perkin Elmer, USA). Data was analyzed using XLfit software.

[3] = molecular target: T2, CDK5/p25 (Homo sapiens, UniProt Q00535); experiment: Enzymatic assay for CDK5 (FRET based LANCE Ultra kinase assay); type: biochemical; conditions: read-out: CDK5 enzymatic activity (IC50 range)
T2 construct: purchased Invitrogen PR8543B
T2 sequence (Q00535 whole entry): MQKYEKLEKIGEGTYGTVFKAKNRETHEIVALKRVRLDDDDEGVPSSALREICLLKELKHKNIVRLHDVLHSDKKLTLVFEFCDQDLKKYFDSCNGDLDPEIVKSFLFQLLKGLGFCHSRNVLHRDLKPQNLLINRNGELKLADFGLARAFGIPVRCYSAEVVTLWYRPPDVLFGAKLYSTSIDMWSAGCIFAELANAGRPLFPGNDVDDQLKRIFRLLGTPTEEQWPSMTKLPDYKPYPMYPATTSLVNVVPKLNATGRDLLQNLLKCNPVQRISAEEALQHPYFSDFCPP
T2 sequence (Q15078 99-307 partner limits assumed): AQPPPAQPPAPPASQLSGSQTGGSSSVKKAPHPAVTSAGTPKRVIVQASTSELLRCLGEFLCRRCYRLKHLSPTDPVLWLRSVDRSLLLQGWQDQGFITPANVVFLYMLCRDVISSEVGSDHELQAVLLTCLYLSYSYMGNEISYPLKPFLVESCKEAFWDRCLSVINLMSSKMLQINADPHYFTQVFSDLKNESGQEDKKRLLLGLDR
Method in brief: (§3)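 Each CDK complex ([…]) phosphorylated 68 nM ULight-MBP peptide with ATP at Km for 60 min at 23° C., against 8 compound doses (4-fold dilutions). EDTA/Eu-anti-phospho-MBP detection, 60 min, then TR-FRET emission at 615 and 665 nm.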

[4] = molecular target: T3, CDK1/Cyclin B (Homo sapiens, UniProt P06493); experiment: Enzymatic assay for CDK1 (FRET based LANCE Ultra kinase assay); type: biochemical; conditions: read-out: CDK1 enzymatic activity (IC50 range)
T3 construct: purchased Invitrogen PR4768C
T3 sequence (P06493 whole entry): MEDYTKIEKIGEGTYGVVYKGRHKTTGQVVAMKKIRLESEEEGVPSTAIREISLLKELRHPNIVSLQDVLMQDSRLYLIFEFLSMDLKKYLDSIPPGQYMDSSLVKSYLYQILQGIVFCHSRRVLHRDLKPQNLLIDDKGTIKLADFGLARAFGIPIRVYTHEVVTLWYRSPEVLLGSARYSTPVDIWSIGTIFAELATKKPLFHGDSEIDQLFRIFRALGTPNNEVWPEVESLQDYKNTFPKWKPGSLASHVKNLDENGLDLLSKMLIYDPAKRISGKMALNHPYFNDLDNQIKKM
T3 sequence (P14635 whole entry partner): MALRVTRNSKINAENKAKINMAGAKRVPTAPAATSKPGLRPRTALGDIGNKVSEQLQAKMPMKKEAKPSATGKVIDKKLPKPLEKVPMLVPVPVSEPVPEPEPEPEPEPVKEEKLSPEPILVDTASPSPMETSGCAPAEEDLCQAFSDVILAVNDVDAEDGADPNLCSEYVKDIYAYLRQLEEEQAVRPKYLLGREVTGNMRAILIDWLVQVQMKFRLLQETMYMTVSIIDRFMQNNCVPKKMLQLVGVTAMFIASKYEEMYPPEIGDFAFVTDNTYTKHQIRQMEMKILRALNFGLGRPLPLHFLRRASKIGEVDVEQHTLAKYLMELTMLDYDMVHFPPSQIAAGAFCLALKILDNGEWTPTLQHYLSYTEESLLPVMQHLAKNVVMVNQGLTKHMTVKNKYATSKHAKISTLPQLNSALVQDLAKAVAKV
Method in brief: as §3

[5] = molecular target: T4, CDK2/Cyclin A (Homo sapiens, UniProt P24941); experiment: Enzymatic assay for CDK2 (FRET based LANCE Ultra kinase assay); type: biochemical; conditions: read-out: CDK2 enzymatic activity (IC50 range)
T4 construct: purchased Invitrogen PV6290
Method in brief: as §3

[6] = tested on: H460; experiment: Cellular H460 viability assay (CellTiter-Glo, 72 hours); type: cell-based; conditions: Homo sapiens, NCI-H460
Method in brief: (§4)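 CellTiter-Glo luminescence read in duplicate after 72 h compound exposure (37 °C, 5% CO2); DMSO-only control, final DMSO under 0.1%.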

[7] = tested on: MOLT-4; experiment: Cellular MOLT-4 viability assay (CellTiter-Glo, 72 hours); type: cell-based; conditions: Homo sapiens, MOLT4 viability assay
Protocol: as §1, §2

[8] = tested on: HCT116; experiment: Cellular HCT116 viability assay (CellTiter-Glo, 72 hours); type: cell-based; conditions: Homo sapiens, HCT-116
Method in brief: as §4

T1 sequence (P50613 whole entry): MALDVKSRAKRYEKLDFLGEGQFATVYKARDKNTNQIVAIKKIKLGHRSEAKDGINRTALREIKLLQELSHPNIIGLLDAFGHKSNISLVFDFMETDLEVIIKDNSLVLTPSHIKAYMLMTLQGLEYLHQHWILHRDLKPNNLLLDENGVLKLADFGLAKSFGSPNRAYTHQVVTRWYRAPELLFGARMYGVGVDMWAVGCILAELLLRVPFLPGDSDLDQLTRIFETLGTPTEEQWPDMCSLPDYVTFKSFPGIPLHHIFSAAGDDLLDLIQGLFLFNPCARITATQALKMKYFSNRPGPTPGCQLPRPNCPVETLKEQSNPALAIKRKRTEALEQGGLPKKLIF
T1 sequence (P51946 whole entry partner): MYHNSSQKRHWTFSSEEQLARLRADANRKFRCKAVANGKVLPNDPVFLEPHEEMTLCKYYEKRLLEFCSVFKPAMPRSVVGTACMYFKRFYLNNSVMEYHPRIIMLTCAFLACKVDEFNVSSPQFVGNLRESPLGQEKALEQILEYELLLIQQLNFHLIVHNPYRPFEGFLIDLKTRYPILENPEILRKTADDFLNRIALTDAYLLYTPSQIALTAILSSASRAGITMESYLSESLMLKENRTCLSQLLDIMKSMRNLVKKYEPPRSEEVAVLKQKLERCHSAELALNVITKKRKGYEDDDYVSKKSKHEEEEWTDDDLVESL
T1 sequence (P51948 whole entry partner): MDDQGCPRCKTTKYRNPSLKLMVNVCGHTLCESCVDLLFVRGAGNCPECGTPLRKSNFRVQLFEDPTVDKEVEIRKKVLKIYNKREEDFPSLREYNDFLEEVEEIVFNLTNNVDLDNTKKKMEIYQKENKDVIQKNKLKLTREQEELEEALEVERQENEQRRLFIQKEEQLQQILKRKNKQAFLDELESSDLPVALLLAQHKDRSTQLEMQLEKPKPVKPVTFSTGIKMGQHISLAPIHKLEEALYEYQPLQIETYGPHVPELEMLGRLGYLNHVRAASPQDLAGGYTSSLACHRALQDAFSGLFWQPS

SMILES	CDK1/CDK7: Selectivity of CDK7 inhibition over CDK1 inhibition [1]	CDK2/CDK7: Selectivity of CDK7 inhibition over CDK2 inhibition [1]	CDK5/CDK7: Selectivity of CDK7 inhibition over CDK5 inhibition [1]	IC50 [1] [nM]	IC50 [2] [nM]	IC50 [3] [nM]	IC50 [4] [nM]	IC50 [5] [nM]	IC50 [6] [nM]	IC50 [7] [nM]	IC50 [8] [nM]
CC(C)c1cnn2c(NCc3ccccc3-c3cc4ccccc4[nH]3)nc(N3CCCC(N)C3)nc12 (racemic) [Compound 125]	A (A=greater than 200 fold)	B (B=less than 200 fold, but greater than 20 fold)	B (B=less than 200 fold, but greater than 20 fold)	< 100	1000 to 10000	> 1000	> 1000	> 1000	–	–	–
CC(C)c1cnn2c(NCc3ccccc3-c3ccc4c(c3)CC(=O)N4)nc(N3CCC(N)CC3)nc12 [Compound 17]	B (B=less than 200 fold, but greater than 20 fold)	B (B=less than 200 fold, but greater than 20 fold)	C (C=less than 20 fold)	< 100	1000 to 10000	100 to 1000	> 1000	100 to 1000	1000 to 10000	–	–
CC(C)c1cnn2c(NCc3cccc(-c4cc5ccccc5[nH]4)c3)nc(N3CCC(N)CC3)nc12 [Compound 118]	B (B=less than 200 fold, but greater than 20 fold)	B (B=less than 200 fold, but greater than 20 fold)	B (B=less than 200 fold, but greater than 20 fold)	< 100	< 1000	100 to 1000	> 1000	100 to 1000	< 1000	–	–
CC(C)c1cnn2c(NCc3ccccc3-c3cc4cc([N+](=O)[O-])ccc4[nH]3)nc(N3CCC(N)CC3)nc12 [Compound 121]	A (A=greater than 200 fold)	B (B=less than 200 fold, but greater than 20 fold)	B (B=less than 200 fold, but greater than 20 fold)	< 100	< 1000	100 to 1000	> 1000	100 to 1000	< 1000	–	–
CNC(=O)c1ccccc1CNc1nc(N2CCC(N)CC2)nc2c(C(C)C)cnn12 [Compound 19]	A (A=greater than 200 fold)	B (B=less than 200 fold, but greater than 20 fold)	B (B=less than 200 fold, but greater than 20 fold)	< 100	< 1000	100 to 1000	> 1000	100 to 1000	–	–	–
CC(C)c1cnn2c(NCc3ccccc3-c3ccc4[nH]c(NC(=O)C5CC5)nc4c3)nc(N3CCC(N)CC3)nc12 [Compound 141]	B (B=less than 200 fold, but greater than 20 fold)	B (B=less than 200 fold, but greater than 20 fold)	C (C=less than 20 fold)	< 100	< 1000	< 100	100 to 1000	100 to 1000	1000 to 10000	–	–
CC(C)c1cnn2c(NCc3cccc(-n4cccn4)c3)nc(N3CCC(N)CC3)nc12 [Compound 47]	B (B=less than 200 fold, but greater than 20 fold)	B (B=less than 200 fold, but greater than 20 fold)	C (C=less than 20 fold)	< 100	–	< 100	100 to 1000	100 to 1000	< 1000	1000 to 10000	< 1000
CC(C)c1cnn2c(NCc3ccccc3-n3cc4c(n3)CCC(=O)C4)nc(N3CCC(N)CC3)nc12 [Compound 132]	A (A=greater than 200 fold)	B (B=less than 200 fold, but greater than 20 fold)	B (B=less than 200 fold, but greater than 20 fold)	< 100	1000 to 10000	100 to 1000	> 1000	> 1000	1000 to 10000	–	–

From patent US11945822B2, “Pyrazolo-triazine and/or pyrazolo-pxrimidine derivatives as selective inhibitor of cyclin dependent kinase” (QURIENT CO., LTD., priority 2018, dated 2024)
